This note sets out measurements from PubChem BioAssay AID330 (DTP/NCI, 2004).

In this assay the test system is P388 leukemia ip, CD2F1 mice, survival T/C. Kind of assay: NCI In Vivo Anticancer Drug Screen. Data for tumor model P388 Leukemia (intraperitoneal) in CD2F1 (CDF1) mice. To be noted: endpoint: median survival time, higher = longer survival. In short, it runs like this:
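Mice carrying the transplanted tumor received test compound or vehicle. Survival was recorded in each group, and the value is the treated-group measurement divided by that of the vehicle-treated control group.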

[1] abbreviates: dose: 50.0 mg/kg/injection, schedule: Q01DX005 (ip), vehicle: Klucel (hydroxypropylcellulose) (HPC).
Setting [2] is: dose: 100.0 mg/kg/injection, schedule: Q01DX005 (ip), vehicle: Klucel (hydroxypropylcellulose) (HPC).
[3] abbreviates: dose: 200.0 mg/kg/injection, schedule: Q01DX005 (ip), vehicle: Klucel (hydroxypropylcellulose) (HPC).
Setting [4] is: dose: 60.0 mg/kg/injection, schedule: Q01DX005 (ip), vehicle: saline with Tween-80.
Where [5] appears, read: dose: 120.0 mg/kg/injection, schedule: Q01DX005 (ip), vehicle: saline with Tween-80.
[6] abbreviates: dose: 240.0 mg/kg/injection, schedule: Q01DX005 (ip), vehicle: saline with Tween-80.
Setting [7] is: dose: 12.5 mg/kg/injection, schedule: Q01DX009 (ip), vehicle: saline with Tween-80.
The mark [8] stands for this setting: dose: 25.0 mg/kg/injection, schedule: Q01DX009 (ip), vehicle: saline with Tween-80.
Setting [9] is: dose: 60.0 mg/kg/injection, schedule: Q01DX005 (ip), vehicle: Klucel (hydroxypropylcellulose) (HPC).
The mark [10] stands for this setting: dose: 120.0 mg/kg/injection, schedule: Q01DX005 (ip), vehicle: Klucel (hydroxypropylcellulose) (HPC).
Where [11] appears, read: dose: 100.0 mg/kg/injection, schedule: Q04DX003 (ip), vehicle: saline with Tween-80.
[12] abbreviates: dose: 200.0 mg/kg/injection, schedule: Q04DX003 (ip), vehicle: saline with Tween-80.
[13] abbreviates: dose: 25.0 mg/kg/injection, schedule: Q01DX009 (ip), vehicle: Klucel (hydroxypropylcellulose) (HPC).
The mark [14] stands for this setting: dose: 50.0 mg/kg/injection, schedule: Q01DX009 (ip), vehicle: Klucel (hydroxypropylcellulose) (HPC).

Values joined by “and” are separate entries in the source; they are usually repeats but may differ in a detail not shown here. Equal entries are not always repeated. Toxic doses and inconclusive results are not listed.

Consider `COc1cc2c[n+]3c(c(C)c2cc1OC)-c1cc2c(cc1CC3)OCO2`, for which the T/C by setting is: (dose: 6.25 mg/kg/injection, schedule: Q04DX003 (ip), vehicle: distilled water + Tween-80) 106 % of control; (dose: 12.5 mg/kg/injection, schedule: Q04DX003 (ip), vehicle: distilled water + Tween-80) 113 % of control; (dose: 25.0 mg/kg/injection, schedule: Q04DX003 (ip), vehicle: distilled water + Tween-80) 116 % of control; (dose: 50.0 mg/kg/injection, schedule: Q04DX003 (ip), vehicle: distilled water + Tween-80) 108 % of control.
As for `c1cnc2c3ccncc3c3nc(-c4ccncc4)[nH]c3c2c1`, the T/C was 91 % of control under setting [1], 88 % of control under setting [2] and 101 % of control under setting [3].
With `CCOC(=O)Cc1cc2c(cc1C)CNC(=O)C2`, the T/C runs as follows: (dose: 6.25 mg/kg/injection, schedule: Q01DX009 (ip), vehicle: distilled water + Tween-80) 94 % of control; (dose: 12.5 mg/kg/injection, schedule: Q01DX009 (ip), vehicle: distilled water + Tween-80) 100 % of control; (dose: 25.0 mg/kg/injection, schedule: Q01DX009 (ip), vehicle: distilled water + Tween-80) 100 % of control; (dose: 50.0 mg/kg/injection, schedule: Q01DX009 (ip), vehicle: distilled water + Tween-80) 94 % of control; (dose: 100.0 mg/kg/injection, schedule: Q01DX009 (ip), vehicle: distilled water + Tween-80) 94 % of control; (dose: 200.0 mg/kg/injection, schedule: Q01DX009 (ip), vehicle: distilled water + Tween-80) 90 % of control. Under “dose: 400.0 mg/kg/injection, schedule: Q01DX009 (ip), vehicle: distilled water + Tween-80”, the T/C is 102 % of control.
`CCOC(=O)N1c2ccccc2N(C(=O)OCC)C1C#N`: the T/C reads like this: under setting [4], 97 % of control; under setting [5], 96 % of control; under setting [6], 87 % of control.
As to `OCC1C=CCC1` (stereo not given), the T/C was 99 % of control (dose: 6.25 mg/kg/injection, schedule: Q01DX009 (ip), vehicle: saline with Tween-80); 101 % of control under setting [7]; 90 % of control under setting [8].
Turning to `NP(=O)(Oc1ccccc1)Oc1ccccc1`, the T/C (dose: 6.23 mg/kg/injection, schedule: Q01DX009 (ip), vehicle: saline with Tween-80) is 95 % of control; the T/C under setting [7] was 100 % of control; the T/C under setting [8] was 95 % of control.
Take `C[n+]1cccc2c1-c1c(ccc[n+]1C)C2`: the T/C is, setting by setting: (dose: 50.0 mg/kg/injection, schedule: Q01DX005 (ip), vehicle: saline) 108 % of control; (dose: 100.0 mg/kg/injection, schedule: Q01DX005 (ip), vehicle: saline) 105 % of control; (dose: 200.0 mg/kg/injection, schedule: Q01DX005 (ip), vehicle: saline) 104 % of control.
On to `C[Si](C)(C)CSC#N`, for which the T/C was 97 % of control (dose: 7.5 mg/kg/injection, schedule: Q01DX005 (ip), vehicle: saline with Tween-80); 101 % of control (dose: 15.0 mg/kg/injection, schedule: Q01DX005 (ip), vehicle: saline with Tween-80); 104 % of control (dose: 30.0 mg/kg/injection, schedule: Q01DX005 (ip), vehicle: saline with Tween-80).
In the case of `CC1=C(C(=O)Nc2cc(C)ccc2C)C(c2cccc([N+](=O)[O-])c2)C(C(=O)Nc2cc(C)ccc2C)=C(C)N1`, the T/C was 88 % of control under setting [9] and 89 % of control under setting [10].
As for `O=NNc1ccc(Sc2ccc(NN=O)nc2)cc1`, the T/C (dose: 3.12 mg/kg/injection, schedule: Q01DX009 (ip), vehicle: water) is 124 % of control; the T/C (dose: 6.25 mg/kg/injection, schedule: Q01DX009 (ip), vehicle: water) is 123 % of control; the T/C (dose: 12.5 mg/kg/injection, schedule: Q01DX009 (ip), vehicle: water) is 100 % of control.
Regarding `NC1CC2CCCCC2CC1c1ccccc1` (stereo not given), the T/C is, setting by setting: (dose: 100.0 mg/kg/injection, schedule: Q01DX001 (ip), vehicle: Klucel (hydroxypropylcellulose) (HPC)) 91 % of control; (dose: 200.0 mg/kg/injection, schedule: Q01DX001 (ip), vehicle: Klucel (hydroxypropylcellulose) (HPC)) 97 % of control; (dose: 400.0 mg/kg/injection, schedule: Q01DX001 (ip), vehicle: Klucel (hydroxypropylcellulose) (HPC)) 96 % of control.
In the case of `CC(C)NCC(O)COc1ccc(OCc2ccccc2)c(OCc2ccccc2)c1` (stereo not given), where the note is “dose: 50.0 mg/kg/injection, schedule: Q01DX009 (ip), vehicle: saline with Tween-80”, the T/C is 100 % of control.
On to `CCCCCCCCCCCCCCCCCCOP(=O)(CC(=O)NCc1cc(C(C)(C)C)c(O)c(C(C)(C)C)c1)OCCCCCCCCCCCCCCCCCC`, for which the T/C is 96 % of control (dose: 12.5 mg/kg/injection, schedule: Q04DX003 (ip), vehicle: saline with Tween-80); 101 % of control (dose: 25.0 mg/kg/injection, schedule: Q04DX003 (ip), vehicle: saline with Tween-80); 92 % of control (dose: 50.0 mg/kg/injection, schedule: Q04DX003 (ip), vehicle: saline with Tween-80); 86 % of control under setting [11]; 100 % of control under setting [12].
As to `COc1ccc(S(=O)(=O)O)cc1N=N/C(=N/Nc1cc(S(=O)(=O)O)ccc1OC)C(=O)Nc1ccccc1`, the T/C is, setting by setting: under setting [9], 101 % of control; under setting [10], 101 % of control; (dose: 240.0 mg/kg/injection, schedule: Q01DX005 (ip), vehicle: Klucel (hydroxypropylcellulose) (HPC)) 105 % of control.
Turning to `CCCCn1c(=O)cc[nH]c1=O`, the T/C is 100 % of control under setting [11]; 100 % of control under setting [12]; 99 % of control (dose: 400.0 mg/kg/injection, schedule: Q04DX003 (ip), vehicle: saline with Tween-80).
In the case of `C=C(C)C1CC2(C)C(C)CC(O)CC2C(OC(=O)C=C(C)C)C1O` (stereo not given), the T/C is 93 % of control under setting [13]; 96 % of control under setting [14]; 97 % of control (dose: 100.0 mg/kg/injection, schedule: Q01DX009 (ip), vehicle: Klucel (hydroxypropylcellulose) (HPC)).
`CCCNCC/C=C/[Si](C)(C)C`: the T/C is 105 % of control (dose: 60.0 mg/kg/injection, schedule: Q01DX005 (ip), vehicle: saline) and 100 % of control (dose: 120.0 mg/kg/injection, schedule: Q01DX005 (ip), vehicle: saline).
For `Oc1ccc2ccccc2c1CN(Cc1c(O)ccc2ccccc12)C1CCCCC1`, the T/C is, setting by setting: (dose: 50.0 mg/kg/injection, schedule: Q01DX005 (ip), vehicle: saline with Tween-80) 97 % of control; (dose: 100.0 mg/kg/injection, schedule: Q01DX005 (ip), vehicle: saline with Tween-80) 96 % of control; (dose: 200.0 mg/kg/injection, schedule: Q01DX005 (ip), vehicle: saline with Tween-80) 104 % of control.
In the case of `O=C1NN(C(=O)c2ccccc2)C(c2ccccc2[N+](=O)[O-])c2c1c1ccccc1n2C(=O)c1ccccc1` (stereo not given), the T/C is, setting by setting: under setting [1], 97 % of control; under setting [2], 95 % of control; under setting [3], 88 % of control.
For the compound `COc1ccc(C(=O)c2ccccc2)c(OC(=O)Nc2c(Cl)cccc2Cl)c1`, the T/C runs as follows: under setting [4], 93 % of control; under setting [5], 107 % of control; under setting [6], 88 % of control.
With `O=CC(NC(=O)CCCc1ccc(N(CCCl)CCCl)cc1)C(O)C(O)C(O)CO` (stereo not given), the T/C is 204 % of control and 215 % of control (dose: 12.5 mg/kg/injection, schedule: Q01DX009 (ip), vehicle: Klucel (hydroxypropylcellulose) (HPC)); 211 % of control and 227 % of control under setting [13]; 105 % of control and 86 % of control and 89 % of control under setting [14].
Take `COC(=O)C1=CCC23CC[C@H](C(C)(/C=C/C=C(\C)C(=O)O)OC2=O)[C@]3(O)CC1` (stereo not given in full): the T/C runs as follows: (dose: 3.88 mg/kg/injection, schedule: Q01DX005 (ip), vehicle: sodium bicarbonate) 87 % of control; (dose: 7.75 mg/kg/injection, schedule: Q01DX005 (ip), vehicle: sodium bicarbonate) 100 % of control; (dose: 15.5 mg/kg/injection, schedule: Q01DX005 (ip), vehicle: sodium bicarbonate) 103 % of control; (dose: 31.0 mg/kg/injection, schedule: Q01DX005 (ip), vehicle: sodium bicarbonate) 108 % of control.
